Test results from patent EP0034754A1, “2-((3-amino-2-hydroxy-propoxy)-styryl) isoxazoles, process for their preparation and pharmaceutical compositions containing them” (BASF Aktiengesellschaft, priority 1980, dated 1981).
Where two headings read alike, the source gives them in different places.

Experiments:
[1] = in vivo; details: for LD50: mouse, ip
[2] = test system: mittleren Carotisdruck; experiment: Blood-pressure-lowering effect in the anaesthetised rat (urethane), carotid pressure; type: in vivo, Ratte; details: i.v.; for ED20: Rattus norvegicus, iv, Sprague Dawley rats under urethane anaesthesia, dose lowering mean carotid pressure by 20 %, read-out: Blutdrucksenkende Wirkung Ratte i.v. ED 20 %
Description: Blutdrucksenkende Wirkung an der narkotisierten Ratte: • Zur Feststellung der blutdrucksenkenden Wirkung erhalten männliche Ratten (Stamm: Sprague Dawley, Gewicht: 230 bis 280 g) in Urethan-Narkose (1,78 g/kg intraperitoneal) die Prüfsubstanzen intravenös appliziert. Die Messung des Blutdruckes in der Aorta carotis erfolgt über Statham--Transducer.
Als ED 20 % wird die Dosis ermittelt, welche den mittleren Carotisdruck um 20 % senkt.

[3] = test system: Isoproterenol-Tachycardie; experiment: ß-sympatholytic effect: inhibition of isoproterenol-induced tachycardia in despinalised rats; type: in vivo; details: Rattus norvegicus, iv, 5 min, read-out: ß-Sympatholytische Wirkung Ratte i.v. ED 50 %
Method: ß-sympatholytische Wirkung: • An despinalisierten Ratten (Stamm: Sprague Dawley, männlich, Gewicht 200 bis 240 g) verursacht Isoproterenol (0,1/ug/kg intravenös) Herfrequenzsteigerungen um durchschnittlich 121 + 2,1 min bei einer Ausgangsfrequenz von 268 + 3,9 min^-1 (Anzahl der Tiere N = 100). ß-Sympatholytika hemmen diese Frequenzsteigerungen spezifisch und dosisabhängig. Die Applikation der getesteten Substanzen erfolgt 5 min vor der Isoproterenolgabe.
Als ED 50 % werden die Dosen ermittelt, welche die Isoproterenol-Tachycardie um 50 % hemmen.
Als Referenzsubstanz dient das bekannte ß-Sympatholytikum Propranolol.

[4] = despinalised Sprague Dawley rats, i.v., given 5 min before isoproterenol 0,1 µg/kg i.v., dose inhibiting tachycardia by 50 %

Structure (SMILES)	selectivity ratio [1]	LD50 [1] [mg/kg]	ED20 [2] [mg/kg]	ED50 [3, 4] [mg/kg]	Blutdrucksenkende Wirkung ([2]; rat, up to a dose of 2,15 mg/kg)	ED50 [3] [mg/kg]
COCc1cc(C=Cc2ccccc2OCC(O)CNC(C)(C)C)on1 (stereo not drawn) [Beispiel 4, 3-Methoxymethyl-5-[2-(2-hydroxY-3-tert.-butylamino-prop-oxy)-styryl]-isoxazol]	13500	100	1	0.00742		
COCc1cc(C=Cc2ccccc2OCC(O)CNC(C)C)on1 (stereo not drawn) [Beispiel 3, 3-Methoxymethyl-5-[2-(2-hydroxy-3-isopropylamino-propoxy)--styryl]-isoxazol]	18900	121	1	0.0064		
CC(C)NCC(O)COc1cccc2ccccc12 (stereo not drawn) [Propranolol, reference compound]					senkt den Blutdruck bis zu einer Dosis von 2,15 mg/kg nicht	0.0127
COCc1cc(C=Cc2ccccc2OCC(O)CNC2CC2)on1 (stereo not drawn) [Beispiel 9, 5-[2-(2-Hydroxy-3-cyclopropylamino-propoxy)-styryl]-3-methoxymethyl-isoxazol]	12100	121		0.01		
Cc1noc(C=Cc2ccccc2OCC(O)CNC(C)C)c1Cl (stereo not drawn) [Beispiel 17, 4-Chlor-3-methyl-5-[2-(2-hydroxy-3-isopropylamino-prop-oxy)-styryl]-isoxazol]	75000	511	1.95	0.00681		
Cc1noc(C=Cc2ccccc2OCC(O)CNC(C)(C)C)c1Cl (stereo not drawn) [Beispiel 16, 4-Chlor-3-methyl-5-[2-(2-hydroxy-3-tert.-butylamino-prop-oxy)-styryl]-isoxazol]	14700	147	1	0.01		
